SMILES strings stand for the structures. Activity calls are given as the source filed them.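 The calls were made as follows: active = curve reaches 40% activation over neutral controls at an AC40 no higher than the top valid tested concentration; inconclusive = no clear call, values can overlap the other calls; inactive = signal moving opposite to the expected increase, and the rest.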 Some results are limits rather than exact numbers.

The values that follow come from PubChem BioAssay AID977607 (Broad Institute, 2014).

For this assay, the system named is INS-1E GLuc insulin secretion reporter, luminescence, 2-3 h. The assay can be described thus: activators of glucose-dependent insulin secretion, dose response, cell-based, INS-1E, Gaussia luciferase, luminescence, cherry-pick, set 2 (AID 977607).
With `NS(=O)(=O)c1ccc(CCNc2nc3c(-c4cccc(F)c4)nnn3c3ccccc23)cc1`, the AC40 is 15.9 µM. On to `CN(C)CCNC(=O)c1cc2c(s1)-c1ccc(Cl)cc1SC2`, for which the AC40 was 6.54 µM.

Take `C/C(Cl)=C/CSc1nc2c(c(=O)[nH]c(=O)n2C)n1C(C)C`: the AC40 is 20 µM. In the case of `c1ccc(Cn2nnc3c(N4CCc5ccccc54)ncnc32)cc1`, the AC40 is 5.06 µM. The figure for `O=C(NN=Cc1ccccc1Cl)c1cccc2ccccc12` is 11.6 µM; for `O=C(CC1c2ccccc2Oc2ccccc21)Nc1ccccc1C(F)(F)F` it is 6.13 µM. The same measure for `CCOC(=O)c1ccccc1NC(=O)c1n[nH]c(=O)c2ccccc12`: 5.47 µM; for `COc1cc2c(cc1OC)C1=C(C#N)CCC(=NC(=O)c3ccco3)N1CC2`: 7.7 µM; for `COC(=O)C1=C(C)N(Cc2cccc(C(F)(F)F)c2)C(=NCc2ccc(OC)cc2)NC1c1cccc(F)c1` (stereo not drawn): 10.8 µM. With `COC(=O)c1ccc(C2C(Oc3ccc(OC)cc3)C(=O)N2CCc2ccc(F)cc2)cc1` (stereo not drawn), the AC40 was 12.6 µM. The figure for `Cc1ccc(-c2nnc3sc(-c4ccncc4)nn23)cc1` is 13.5 µM; for `COc1ccc(C)c2sc(N(CCCN(C)C)C(=O)c3ccc(S(=O)(=O)N4CCc5ccccc5C4)cc3)nc12` it is 3.95 µM. The same measure for `N#CCc1nn(-c2ccccc2)c2ncnc(N)c12`: 11.9 µM; for `CCCc1cc(-c2nc(-c3ccc(C)cc3)cs2)ccn1`: 10.2 µM; for `Cc1ccc(C)c(OCC(=O)N/N=C/c2c(C)nn(-c3ccccc3)c2Cl)c1C`: 3.2 µM. The same measure for `COc1ccc(C2=Nn3c(nnc3-c3ccncc3)SC2)cc1OC`: 13.3 µM. Regarding `CC(C)Sc1nc2c(c(=O)[nH]c(=O)n2C)n1Cc1ccc(Cl)cc1`, the AC40 was 19.9 µM. The same measure for `COc1ccc(C(=O)Nc2ccc3c(c2)C(=O)c2ccccc2C3=O)cc1OC`: 24.1 µM.

Regarding `CCCCc1c(Cc2cccc(F)c2)ncn1CCc1ccccc1OC`, the AC40 is 12.3 µM. The same measure for `O=C(Nc1ccc(SC(F)F)cc1)c1cccc2nc3ccccc3nc12`: 9.11 µM. The same measure for `C(=C\c1ccc(C2[C@@H]3CN(Cc4nccs4)C[C@H]2N3)cc1)/c1ccccc1` (stereo partly drawn): 17 µM; for `Cc1c(C(=O)OCC(=O)N2CC(=O)Nc3ccccc32)oc2ccc(Br)cc12`: 4.76 µM. The same measure for `CC(C)CC#Cc1ccc2c(c1)O[C@@H](CN(C)Cc1ccc(F)cc1)[C@H](C)CN([C@H](C)CO)S2(=O)=O`: 10.4 µM; for `O=C(Cn1ncc(Cl)c(Cl)c1=O)Nc1ccc2c(c1)OCO2`: 12 µM. With `Cc1cccc(-c2ccc(C3[C@@H]4CN(C(=O)Nc5ccc(C(F)(F)F)cc5)C[C@H]3N4)cc2)c1` (stereo partly drawn), the AC40 is 1.09 µM. The figure for `CCOc1ccc(Nc2oc(-c3ccc(Cl)cc3)nc2C#N)cc1` is 5.14 µM; for `Cc1ccc(-n2ncc3c(=O)n(CC(=O)Nc4cccc(Cl)c4)cnc32)cc1C` it is 6.37 µM; for `c1ccc(-c2nnc3n2-c2ccccc2SC3)cc1` it is > 35 µM (inactive).

On to `O=C(Nc1cccc(Cl)c1)Nc1nnc(CSCCOc2ccc(Cl)cc2)s1`, for which the AC40 was 5.57 µM.

For the compound `O=c1c2ccccc2nc(-c2ccco2)n1/N=C/c1ccccc1O`, the AC40 is 14.7 µM. The same measure for `CCOc1ccc(CCNC(=O)COc2cc(=O)n(C)c3ccccc23)cc1OCC`: 22.6 µM; for `COc1ccc(C(=O)N=C2CCC(C#N)=C3c4cc(OC)c(OC)cc4CCN23)cc1`: 0.483 µM; for `CCOc1ncccc1C(=O)Nc1ccc(S(=O)(=O)Nc2nc(C)cc(C)n2)cc1`: 33.2 µM. As to `O=C(NCC1OCCc2ccccc21)c1ccc(NC(=O)c2ccc(Cl)cc2)cc1` (stereo not drawn), the AC40 is 5.18 µM. For `Cc1ccc(C)c(C(=O)Nc2nc3ccccc3[nH]2)c1`, the AC40 is 8.78 µM. The figure for `OC(c1ccccc1)(c1ccccc1)C1CCN(CCCOc2cccc(OC(F)(F)F)c2)CC1` is 5.24 µM. The same measure for `CCCCCCCOC(=O)c1nc(Cl)c(Cl)c(N)c1Cl`: 14.5 µM; for `CC(C)(C)S(=O)N1Cc2cc(C(=O)Nc3ccc(-c4ccccc4)cc3)nc(-c3cccc(-c4cccc(F)c4)c3)c2[C@@H]1CCO` (stereo partly drawn): 6.27 µM. The same measure for `COc1ccc(-c2cc3ccccc3oc2=O)cc1NC(=S)NC(=O)c1ccc2c(c1)OCCO2`: 4.75 µM. Consider `COC(=O)c1ccc(C(=O)Nc2cc(Cl)ccc2Cl)cc1NC(=O)c1ccccc1C`, for which the AC40 is 2.43 µM. The figure for `CCOc1ccc(CCNC(=O)Cn2ccc3ccccc3c2=O)cc1OCC` is > 35 µM (inactive).

As for `O=C(Nc1ccc(F)cc1)Nc1cc(OCC(F)(F)F)cc(OCC(F)(F)F)c1`, the AC40 is 7.63 µM. The figure for `Cc1ccc(CC2(OCCN(C)C)CCC(C(C)(C)C)CC2)cc1` (stereo not drawn) is 13.9 µM; for `CC(C)n1nc(C(=O)Nc2ccccc2N2CCOCC2)c2ccccc2c1=O` it is 8.07 µM. `NC1=NC[C@H](c2ccccc2)N1CCCCC1CCCCC1`: the AC40 is 28.8 µM. `CC1(C(=O)NS(=O)(=O)c2ccc(Cl)s2)CCN1C(=O)C1(c2ccc(Cl)cc2)CCC1` (stereo not drawn): the AC40 is > 35 µM (inactive). The figure for `CCN(CC)c1ccc(N=Cc2c(O)n(Cc3ccccc3)c(=O)[nH]c2=O)cc1` is 11.3 µM; for `CC1(C(=O)NS(=O)(=O)c2ccccc2Cl)CCN1C(=O)C1(c2ccccc2)CCCC1` (stereo not drawn) it is 19.3 µM; for `NC[C@H](Cc1ccccc1)NCCc1cc(C(F)(F)F)cc(C(F)(F)F)c1` it is 14.9 µM. The same measure for `CCCCc1ccc(NC(=O)COc2ccc(C(=O)Nc3ccccc3OCC)cc2)cc1`: 2.88 µM; for `CCOC(=O)c1oc2cc(O)cc(C)c2c1C`: 15.1 µM. The same measure for `C=CCn1c(-c2csc(-c3ccc(OC)c(OC)c3)n2)n[nH]c1=S`: 1.01 µM; for `N#Cc1sc2nc(N3CCCCC3)c3c(c2c1N)CCCC3`: 28.6 µM; for `COc1cccc(OCc2nc3c4cnn(-c5ccccc5)c4ncn3n2)c1`: 8.5 µM. Regarding `Cc1cccc(Cn2ccc(-c3ccc(Cl)cc3)c(C#N)c2=O)c1`, the AC40 was 7 µM. The same measure for `CCOC(=O)C1(C)CCCCN1C(=O)c1cccc(Cl)c1` (stereo not drawn): > 35 µM (inactive). The same measure for `COc1ccc(-c2ccc(SCc3ccccn3)nn2)cc1OC`: 6.41 µM; for `Cc1cc(C)nc(Nc2n[nH]c(COc3ccc4ccccc4c3)n2)n1`: 7.71 µM. The figure for `O=S(=O)(Nc1ccc(-c2ccc3nncn3n2)cc1)c1ccccc1Cl` is 15.2 µM; for `COc1ccc(C(=O)NC(=S)Nc2ccc3c4c(cccc24)CC3)cc1OC` it is 7.84 µM; for `O=C(NCC1OCCc2ccccc21)c1ccc(NC(=O)c2cccc(Br)c2)cc1` (stereo not drawn) it is 14 µM. For `COC(=O)C1=C(C)N(Cc2cccc(C(F)(F)F)c2)C(=NCc2ccc(OC)cc2)NC1c1ccc(F)cc1` (stereo not drawn), the AC40 is 15.5 µM.

For the compound `Cc1ccc2nc(Cl)nc(-c3ccccc3)c2c1`, the AC40 was 12.2 µM. On to `Cc1ccc(/C=N/NC(=O)COc2ccccc2-c2ccccc2)cc1`, for which the AC40 is 7.03 µM.

`CCCCCCN1C[C@H](n2cc(COC(=O)c3ccccc3)nn2)[C@@H](O)C[C@@H]1c1ccc(C)cc1`: the AC40 was 6.42 µM. The same measure for `COc1ccc(C2CNC(=O)C2)cc1OC1CCCC1` (stereo not drawn): 1.98 µM; for `CC(C)CC#Cc1ccc2c(c1)O[C@@H](CN(C)Cc1ccccc1)[C@H](C)CN([C@H](C)CO)S2(=O)=O`: 9.77 µM.

Take `N#Cc1cccc(Oc2ccc(-c3cnc4ccccc4n3)cc2)c1C#N`: the AC40 is 13.1 µM.

Regarding `CC(C)(c1ccccc1)c1ccc(OCC(O)CNC2CCN(Cc3ccccc3)CC2)cc1` (stereo not drawn), the AC40 is 11.8 µM. Turning to `Nc1nc(N)c2cc(Sc3ccc(Cl)cc3)ccc2n1`, the AC40 is 7.16 µM. The figure for `CN(Cc1c(C(=O)N/N=C/c2ccccc2O)nnn1-c1nonc1N)C1CCCCC1` is 9.53 µM; for `COc1cc2ccc(CC(=O)O)cc2cc1OC` it is 2.69 µM. The same measure for `COc1nc(-c2ccc(Cl)cc2)ccc1-c1noc(-c2ccco2)n1`: 19.5 µM. `CCOC(=O)Cn1c(=NC(=O)c2nc3ccccc3s2)sc2cc(S(N)(=O)=O)ccc21`: the AC40 is 11.4 µM. For the compound `COCCn1c(=NC(=O)c2cc(Cl)sc2Cl)sc2cc(S(N)(=O)=O)ccc21`, the AC40 is 7.51 µM. Regarding `C[C@H]1CN([C@@H](C)CO)S(=O)(=O)c2ccc(C#Cc3ccccc3)cc2O[C@@H]1CN(C)C(=O)CN(C)C`, the AC40 is 28 µM.

Regarding `CCCNC(=O)c1nnsc1S(=O)c1ccc(Cl)cc1` (stereo not drawn), the AC40 is 1.06 µM. In the case of `O=C(Nc1ccc(C(F)(F)F)cc1)N1[C@@H]2CNC[C@H]1C2c1ccc(/C=C/c2ccccc2)cc1` (stereo partly drawn), the AC40 was 9.53 µM. The same measure for `NS(=O)(=O)c1ccc(N=Cc2c(O)n(C3CCCCC3)c(=O)n(C3CCCCC3)c2=O)cc1`: 16 µM; for `O=C(Nc1nc(-c2ccc(-c3ccccc3)cc2)cs1)C1=COCCO1`: 6.8 µM; for `Cc1cccc(C(C)C)c1NC(=O)COC(=O)c1cccc(S(=O)(=O)N2CCc3ccccc3C2)c1`: 10.9 µM.

As for `COc1ccc(C2=Nn3c(nnc3-c3ccccc3F)SC2)cc1OCC1CC1`, the AC40 was 1.23 µM. The figure for `CCOc1ccc(-c2nnn(CC(=O)Nc3ccccc3OC)n2)cc1OCC` is 2.04 µM; for `COc1ccc(C2=NN(C(C)=O)C(c3cccs3)C2)cc1OC` (stereo not drawn) it is 8.92 µM. For `O=c1c(C=Nc2ccc(Oc3ccccc3)cc2)c[nH]n1-c1cccc(Cl)n1`, the AC40 is 6.27 µM.

As to `CCCCn1c(N2CCCC2)nc2c1c(=O)[nH]c(=O)n2C`, the AC40 is 5.57 µM. The same measure for `COc1ccccc1C(=O)Nc1c2c(nn1-c1cccc(C)c1C)CS(=O)(=O)C2`: 7.77 µM. The same measure for `COc1ccc(CCN(C)C(=O)c2oc3ccccc3c2C)cc1OC`: 7.06 µM; for `COc1ccc(NC(=O)c2sc3nc(N4CCOCC4)c4c(c3c2N)CC(C)(C)OC4)c(OC)c1`: 6.55 µM; for `Cc1ccc2oc(-c3ccc(NC(=O)c4ccc5c(c4)OCO5)cc3)nc2c1`: 4.81 µM. Turning to `CCOC(=O)c1[nH]c2cc(OC)c(OC)cc2c1NC(=O)c1ccc2c(c1)OCO2`, the AC40 is 18.1 µM.

Regarding `CCN(Cc1ccccc1)S(=O)(=O)c1ccc(C(=O)N(CCCN(C)C)c2nc3cc(C)cc(C)c3s2)cc1`, the AC40 is 17.4 µM.

Consider `NC(N)=N/N=C/c1ccc(OCc2ccccc2)c(OCc2ccccc2)c1`, for which the AC40 was 10.2 µM.
